# Earlier results as cited in US6127342A, “Method for preventing or treating a lung disease caused by active oxygen and free radical injury” (Teijin Limited, priority 1991, dated 2000).
# Test system: glutathione peroxidase
# Conditions: Flohe, et al.; cited from earlier work
smiles,measurement,value
COC(=O)[C@H](CS)NC(=O)CC[C@H](N)C(=O)O,efficiency as substrate of glutathione peroxidase compared with glutathione,20-30%
